Molecular target: human IRAK4 (Homo sapiens (Human), UniProt Q9NWZ3)
Assay: IRAK4 kinase inhibition, Transcreener fluorescence polarization ADP assay
Assay type: biochemical
Settings: recombinant full-length His6-IRAK4; 125 uM ATP; 90 min; Ki computed using ATP Km 642 uM
Experimental: Compounds were assayed for inhibition of human IRAK4 and IRAK1 catalytic activity using recombinant enzyme produced from insect cells. Full-length IRAK4 protein, carrying an N-terminal His6-Tag, was obtained from Life Technologies (Carlsbad, Calif., USA). The IRAK1 construct was produced internally and was comprised of IRAK1 residues Arg194 to Ser712, preceded by an NH2-terminal His6 tag and the coding sequence for glutathione-S-transferase.

Chain of human IRAK4 (Q9NWZ3 whole entry): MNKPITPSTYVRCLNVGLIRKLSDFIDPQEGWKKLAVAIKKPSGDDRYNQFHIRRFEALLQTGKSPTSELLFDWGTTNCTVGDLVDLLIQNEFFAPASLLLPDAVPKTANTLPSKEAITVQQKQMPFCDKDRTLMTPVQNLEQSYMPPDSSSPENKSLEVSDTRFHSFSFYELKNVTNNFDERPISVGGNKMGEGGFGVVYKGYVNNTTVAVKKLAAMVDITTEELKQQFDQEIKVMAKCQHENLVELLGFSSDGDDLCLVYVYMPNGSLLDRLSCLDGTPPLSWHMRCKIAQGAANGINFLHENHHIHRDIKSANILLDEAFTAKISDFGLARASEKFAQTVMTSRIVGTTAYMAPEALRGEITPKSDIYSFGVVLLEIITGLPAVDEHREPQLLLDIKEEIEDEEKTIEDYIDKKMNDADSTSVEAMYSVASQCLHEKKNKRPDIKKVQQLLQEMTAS

Ki	SMILES
150 nM	CC1(C)CN(c2cc3c(cc2NC(=O)c2cnn4cccnc24)C[C@](C)(CO)O3)CCO1 [Example 36, (R)—N-(6-(2,2-dimethylmorpholino)-2-(hydroxymethyl)-2-methyl-2,3-dihydrobenzofuran-5-yl)pyrazolo[1,5-a]pyrimidine-3-carboxamide]
13 nM	CC1(C)Cc2cc(NC(=O)c3cnn4cccnc34)c(N3CCNCC3)cc2O1 [Example 533, N-(2,2-dimethyl-6-piperazin-1-yl-3H-benzofuran-5-yl)pyrazolo[1,5-a]pyrimidine-3-carboxamide]
6 nM	CC1(C)Cc2cc(NC(=O)c3cnn4cccnc34)c(N3Cc4cn[nH]c4C3)cc2O1 [Example 246, N-(6-(4,6-dihydropyrrolo[3,4-c]pyrazol-5(1H)-yl)-2,2-dimethyl-2,3-dihydrobenzofuran-5-yl)pyrazolo[1,5-a]pyrimidine-3-carboxamide]
720 nM	CN1CCCC(Oc2cc3c(cc2NC(=O)c2cnn4cccnc24)CC(C)(C)O3)C1 (stereo not drawn) [Example 304, N-(2,2-Dimethyl-6-((1-methylpiperidin-3-yl)oxy)-2,3-dihydrobenzofuran-5-yl)pyrazolo[1,5-α]pyrimidine-3-carboxamide]
79 nM	CC1(C)Cc2cc(NC(=O)c3cnn4cccnc34)c(N3CCC4(CCOC4)C3)cc2O1 (centres unmarked) [Example 108, N-(2,2-dimethyl-6-(2-oxa-7-azaspiro[4.4]nonan-7-yl)-2,3-dihydrobenzofuran-5-yl)pyrazolo[1,5-a]pyrimidine-3-carboxamide]
5.1 nM	CC1(C)Cc2cc(NC(=O)c3cnn4cccnc34)c(N3CCN(CC4CCC(=O)N4)CC3)cc2O1 (centres unmarked) [Example 468, N-(2,2-dimethyl-6-(4-((5-oxopyrrolidin-2-yl)methyl)piperazin-1-yl)-2,3-dihydrobenzofuran-5-yl)pyrazolo[1,5-a]pyrimidine-3-carboxamide]
37 nM	CC1(C)Cc2cc(NC(=O)c3cnn4cccnc34)c(C3CC3)cc2O1 [Example 384, N-(6-Cyclopropyl-2,2-dimethyl-3H-benzofuran-5-yl)pyrazolo[1,5-a]pyrimidine-3-carboxamide]
29 nM	Cc1nc(CN2CCN(c3cc4c(cc3NC(=O)c3cnn5cccnc35)CC(C)(C)O4)CC2)no1 [Example 461, N-(2,2-dimethyl-6-(4-((5-methyl-1,2,4-oxadiazol-3-yl)methyl)piperazin-1-yl)-2,3-dihydrobenzofuran-5-yl)pyrazolo[1,5-a]pyrimidine-3-carboxamide]
3.1 nM	CC1(C)Cc2cc(NC(=O)c3cnn4cccnc34)c(N3CCN(Cc4cnoc4)CC3)cc2O1 [Example 504, N-(6-(4-(isoxazol-4-ylmethyl)piperazin-1-yl)-2,2-dimethyl-2,3-dihydrobenzofuran-5-yl)pyrazolo[1,5-a]pyrimidine-3-carboxamide]
5.9 nM	Cn1cc(CN2CCN(c3cc4c(cc3NC(=O)c3cnn5cccnc35)CC(C)(C)O4)CC2)cn1 [Example 460, N-(2,2-dimethyl-6-(4-((1-methyl-1H-pyrazol-4-yl)methyl)piperazin-1-yl)-2,3-dihydrobenzofuran-5-yl)pyrazolo[1,5-a]pyrimidine-3-carboxamide]
38 nM	COCCCN1CCN(c2cc3c(cc2NC(=O)c2cnn4cccnc24)CC(C)(C)O3)CC1 [Example 465, N-(6-(4-(3-methoxypropyl)piperazin-1-yl)-2,2-dimethyl-2,3-dihydrobenzofuran-5-yl)pyrazolo[1,5-a]pyrimidine-3-carboxamide]

The remaining lines, values behind:

SMILES	Ki
Cc1c2c(cc(NC(=O)c3cnn4cccnc34)c1N1CCOCC1)C[C@](C)(CO)O2 [Example 83, (R)—N-(2-(Hydroxymethyl)-2,7-dimethyl-6-morpholino-2,3-dihydrobenzofuran-5-yl)pyrazolo[1,5-a]pyrimidine-3-carboxamide]	62 nM
O=C(Nc1cc2c(cc1N1CCOCC1)C(=O)N(CC1CCOC1)C2)c1cnn2cccnc12 (single isomer, unassigned) [Example 555]	3.8 nM
O=C(Nc1cc2c(cc1N1CCOCC1)C(=O)N([C@@H]1CCOC[C@H]1F)C2)c1cnn2cccnc12 [Example 400, N-[2-[(3S,4R)-3-fluorotetrahydropyran-4-yl]-6-morpholino-1-oxo-isoindolin-5-yl]pyrazolo[1,5-a]pyrimidine-3-carboxamide]	1 nM
Cn1ccc(-c2cc3c(cc2NC(=O)c2cnn4cccnc24)CC(C)(C)O3)n1 [Example 489, N-(2,2-dimethyl-6-(1-methyl-1H-pyrazol-3-yl)-2,3-dihydrobenzofuran-5-yl)pyrazolo[1,5-a]pyrimidine-3-carboxamide]	240 nM
CN1CCC2(CC1)Cc1cc(NC(=O)c3cnn4cccnc34)c(N3CCC(CO)CC3)cc1O2 [Example 371, N-(6-(4-(Hydroxymethyl)piperidin-1-yl)-1′-methyl-3H-spiro[benzofuran-2,4′-piperidin]-5-yl)pyrazolo[1,5-a]pyrimidine-3-carboxamide]	1.4 nM
CC1(C)Cc2cc(NC(=O)c3cnn4cccnc34)c(N3CCN(CC(=O)N4CCCC4)CC3)cc2O1 [Example 243, N-(2,2-Dimethyl-6-(4-(2-oxo-2-(pyrrolidin-1-yl)ethyl)piperazin-1-yl)-2,3-dihydrobenzofuran-5-yl)pyrazolo[1,5-a]pyrimidine-3-carboxamide]	250 nM
C[C@]1(CO)Cc2cc(NC(=O)c3cnn4cccnc34)c(N3CCC(F)(CO)CC3)cc2O1 (single isomer, unassigned) [Example 44]	1.7 nM
CNc1cnc2c(C(=O)Nc3cc4c(cc3N3CCN(CC(F)F)CC3)OC(C)(C)C4)cnn2c1 [Example 379, N-[6-[4-(2,2-difluoroethyl)piperazin-1-yl]-2,2-dimethyl-3H-benzofuran-5-yl]-6-(methylamino)pyrazolo[1,5-a]pyrimidine-3-carboxamide]	5.1 nM
CC1(C)Cc2cc(NC(=O)c3cnn4cccnc34)c(OC[C@H]3CNC(=O)C3)cc2O1 [Example 307, N-[2,2-Dimethyl-6-[[(3R)-5-oxopyrrolidin-3-yl]methoxy]-3H-benzofuran-5-yl]pyrazolo[1,5-a]pyrimidine-3-carboxamide]	32 nM
C[C@]1(C2CC2)Cc2cc(NC(=O)c3cnn4cccnc34)c(N3CCC(F)(CO)CC3)cc2O1 [Example 161, (R)—N-(2-Cyclopropyl-6-(4-fluoro-4-(hydroxymethyl)piperidin-1-yl)-2-methyl-2,3-dihydrobenzofuran-5-yl)pyrazolo[1,5-a]pyrimidine-3-carboxamide]	3.8 nM
CC(C)(O)[C@@]1(C)Cc2cc(NC(=O)c3cnn4cccnc34)c(N3CCN(Cc4c[nH]cn4)CC3)cc2O1 [Example 522, N-[(2R)-2-(1-Hydroxy-1-methyl-ethyl)-6-[4-(1H-imidazol-4-ylmethyl)piperazin-1-yl]-2-methyl-3H-benzofuran-5-yl]pyrazolo[1,5-a]pyrimidine-3-carboxamide]	3.4 nM
Cc1cc(COc2cc3c(cc2NC(=O)c2cnn4cccnc24)CC(C)(C)O3)n[nH]1 [Example 542, N-[2,2-Dimethyl-6-[(5-methyl-1H-pyrazol-3-yl)methoxy]-3H-benzofuran-5-yl]pyrazolo[1,5-a]pyrimidine-3-carboxamide]	59 nM
O=C(Nc1cc2c(cc1N1CCOCC1)C(=O)N(C[C@H]1CCC[C@H]1O)C2)c1cnn2cccnc12 [Example 560, N-[2-[[(1R,2R)-2-hydroxycyclopentyl]methyl]-6-morpholino-1-oxo-isoindolin-5-yl]pyrazolo[1,5-a]pyrimidine-3-carboxamide]	1.6 nM
CC(C)(O)C1(C)Cc2cc(NC(=O)c3cnn4cccnc34)c(N3CCN(CC(N)=O)CC3)cc2O1 (centres unmarked) [Example 356, N-[6-[4-(2-amino-2-oxo-ethyl)piperazin-1-yl]-2-(1-hydroxy-1-methyl-ethyl)-2-methyl-3H-benzofuran-5-yl]pyrazolo[1,5-a]pyrimidine-3-carboxamide]	4 nM
CC(C)(O)CCN1Cc2cc(NC(=O)c3cnn4cccnc34)c(N3CCN(CC(F)F)CC3)cc2C1=O [Example 279, N-[6-[4-(2,2-Difluoroethyl)piperazin-1-yl]-2-(3-hydroxy-3-methyl-butyl)-1-oxo-isoindolin-5-yl]pyrazolo[1,5-a]pyrimidine-3-carboxamide]	1.8 nM
C[C@@H](O)[C@H](F)CN1Cc2cc(NC(=O)c3cnn4cccnc34)c(N3CCOCC3)cc2C1=O [Example 562, N-(2-((2R,3R)-2-fluoro-3-hydroxybutyl)-6-morpholino-1-oxoisoindolin-5-yl)pyrazolo[1,5-a]pyrimidine-3-carboxamide]	1.9 nM
O=C(Nc1cc2c(cc1N1CCOCC1)C(=O)N([C@H]1CCC[C@H]1CO)C2)c1cnn2cccnc12 [Example 564, N-(2-((1S,2R)-2-(hydroxymethyl)cyclopentyl)-6-morpholino-1-oxoisoindolin-5-yl)pyrazolo[1,5-a]pyrimidine-3-carboxamide]	28 nM
O=C(Nc1cc2c(cc1N1CCOCC1)C(=O)N(CC(F)F)C2)c1cnn2cccnc12 [Example 174, N-[2-(2,2-difluoroethyl)-6-morpholino-1-oxo-isoindolin-5-yl]pyrazolo[1,5-a]pyrimidine-3-carboxamide]	20 nM
CC1(C)Cc2cc(NC(=O)c3cnn4cccnc34)c(OC[C@@H]3CCC(=O)N3)cc2O1 [Example 541, N-[2,2-dimethyl-6-[[(2S)-5-oxopyrrolidin-2-yl]methoxy]-3H-benzofuran-5-yl]pyrazolo[1,5-a]pyrimidine-3-carboxamide]	190 nM
CC1(C)Cc2cc(NC(=O)c3cnn4cc(C(F)F)cnc34)c(N3CCOCC3)cc2O1 [Example 91, 6-(Difluoromethyl)-N-(2,2-dimethyl-6-morpholino-3H-benzofuran-5-yl)pyrazolo[1,5-a]pyrimidine-3-carboxamide]	39 nM
C[C@@]1(CO)Cc2cc(NC(=O)c3cnn4cccnc34)c(OCC(F)F)cc2O1 [Example 310, (S)-N-(6-(2,2-difluoroethoxy)-2-(hydroxymethyl)-2-methyl-2,3-dihydrobenzofuran-5-yl)pyrazolo[1,5-a]pyrimidine-3-carboxamide]	23 nM

Reference: patent US10988478B1, “Pyrazolo[1,5a]pyrimidine derivatives as IRAK4 modulators” (Genentech, Inc., priority 2015, dated 2021)
